Laboratory results taken from publication doi:10.1101/2024.06.16.599186v1 (biorxiv, 2024).
Counter-ions that a name gives are not always drawn.

Target: MoGep4 (Pyricularia oryzae, UniProt G4N1T8)
Sequence (G4N1T8 1-216): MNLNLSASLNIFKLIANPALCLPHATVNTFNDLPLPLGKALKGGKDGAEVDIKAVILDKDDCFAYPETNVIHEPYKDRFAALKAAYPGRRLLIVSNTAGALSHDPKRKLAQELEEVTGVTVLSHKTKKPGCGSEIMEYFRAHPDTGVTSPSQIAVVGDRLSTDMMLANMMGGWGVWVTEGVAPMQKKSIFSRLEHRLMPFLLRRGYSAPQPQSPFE

## CCCCC(CC)CNC(=N)NC(=N)NCCCCCCNC(=N)NC(=N)NCC(CC)CCCC (stereo not shown) [AXD, alexidine dihydrochloride]
  % inhibition at 4 μM: 62.9%
